Data reported in ChEMBL document CHEMBL4033647, “Novel coumarin- and quinolinone-based polycycles as cell division cycle 25-A and -C phosphatases inhibitors induce proliferation arrest and apoptosis in cancer cells” (Eur J Med Chem, 2017).
Calls of active or inactive are those of the source. The calls are words filed in the database; no cut-off is given here.

What was measured:
A-431 [1] = assay: Induction of apoptosis in human A431 cells assessed as caspase-3 cleavage at 10 uM after 24 hrs by Western blot analysis; format: functional, cell-based
Hs 683 = assay: Cytotoxicity against human Hs683 cells assessed as reduction in cell viability after 72 hrs by MTT assay; format: functional, cell-based; conditions: Hs 683, 72 h
A-431 [2] = assay: Cell cycle arrest in human A431 cells assessed as accumulation at G2/M phase at 50 uM after 24 hrs by propidium iodide staining based flow cytometric analysis (reference value: 26.23%); format: functional
A-431 [3] = assay: Cytotoxicity against human A431 cells assessed as reduction in cell viability at 10 uM after 24 hrs by MTT assay; format: functional
[4] = target: T1, M-phase inducer phosphatase 3 (Homo sapiens, UniProt P30307); assay: Inhibition of recombinant human full length GST-tagged CDC25C expressed in Escherichia coli BL21-DE3 pLysS using 3-O-methylfluorescein phosphate as substrate after 2 hrs by fluorimetric analysis
T1 sequence (P30307 whole entry): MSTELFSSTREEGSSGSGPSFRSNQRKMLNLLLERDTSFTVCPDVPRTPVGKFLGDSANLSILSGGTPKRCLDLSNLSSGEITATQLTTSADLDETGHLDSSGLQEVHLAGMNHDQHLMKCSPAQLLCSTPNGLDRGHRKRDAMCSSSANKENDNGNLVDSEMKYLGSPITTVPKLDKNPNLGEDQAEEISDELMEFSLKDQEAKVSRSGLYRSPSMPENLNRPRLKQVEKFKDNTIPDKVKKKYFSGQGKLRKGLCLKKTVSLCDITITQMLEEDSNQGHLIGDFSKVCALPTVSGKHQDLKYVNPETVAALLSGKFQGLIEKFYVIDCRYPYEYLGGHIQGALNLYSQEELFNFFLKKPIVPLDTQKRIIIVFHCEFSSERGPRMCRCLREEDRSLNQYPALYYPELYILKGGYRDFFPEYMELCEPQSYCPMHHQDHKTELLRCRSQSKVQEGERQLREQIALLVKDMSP

[5] = target: T2, M-phase inducer phosphatase 3 (Homo sapiens) (UniProt P30307); assay: Inhibition of CDC25C in human A431 cells assessed as increase in CDK-mediated phosphorylation of histone H3 at Ser10 residues at 10 uM after 24 hrs by Western blot analysis; format: cell-based
T2 sequence (whole entry): T1 sequence (P30307 whole entry)

A-431 [6] = assay: Cell cycle arrest in human A431 cells assessed as accumulation at G1 phase at 50 uM after 24 hrs by propidium iodide staining based flow cytometric analysis (reference value: 53.04%); format: functional
[7] = target: T3, M-phase inducer phosphatase 1 (Homo sapiens, UniProt P30304); assay: Inhibition of recombinant human full length GST-tagged CDC25A expressed in Escherichia coli BL21-DE3 pLysS using 3-O-methylfluorescein phosphate as substrate after 2 hrs by fluorimetric analysis
T3 sequence (P30304 whole entry): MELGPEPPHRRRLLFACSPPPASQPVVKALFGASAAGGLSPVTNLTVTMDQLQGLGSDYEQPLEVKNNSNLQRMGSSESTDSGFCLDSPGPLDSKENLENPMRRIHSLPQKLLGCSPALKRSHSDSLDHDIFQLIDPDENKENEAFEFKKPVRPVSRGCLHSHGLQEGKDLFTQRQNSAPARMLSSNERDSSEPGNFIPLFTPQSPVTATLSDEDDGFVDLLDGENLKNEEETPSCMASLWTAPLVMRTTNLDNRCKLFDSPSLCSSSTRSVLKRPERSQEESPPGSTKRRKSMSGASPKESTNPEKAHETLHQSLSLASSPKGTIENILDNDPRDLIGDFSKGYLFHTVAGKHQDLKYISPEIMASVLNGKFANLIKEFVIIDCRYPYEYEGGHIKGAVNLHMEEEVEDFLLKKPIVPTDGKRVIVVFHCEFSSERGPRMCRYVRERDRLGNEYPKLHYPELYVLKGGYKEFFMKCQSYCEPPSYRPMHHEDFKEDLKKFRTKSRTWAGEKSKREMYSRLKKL

A-431 [8] = assay: Cell cycle arrest in human A431 cells assessed as accumulation at G2/M phase at 10 uM after 24 hrs by propidium iodide staining based flow cytometric analysis (reference value: 26.23%); format: functional
A-431 [9] = assay: Cytotoxicity against human A431 cells assessed as reduction in cell viability after 24 hrs by MTT assay; format: functional, cell-based; conditions: A-431, 24 h
[10] = Cytotoxicity against human U373n cells assessed as reduction in cell viability after 72 hrs by MTT assay; format: functional, cell-based
A-431 [11] = assay: Induction of apoptosis in human A431 cells assessed as PARP cleavage at 10 uM after 24 hrs by Western blot analysis; format: functional, cell-based
[12] = target: T2, M-phase inducer phosphatase 3 (Homo sapiens); assay: Inhibition of CDC25C in human A431 cells assessed as increase in phosphorylation of CDK1 at Thr14/Tyr15 residues at 50 uM after 24 hrs by Western blot analysis; format: cell-based
A-431 [13] = assay: Cytotoxicity against human A431 cells assessed as cell viability at 10 uM after 48 hrs by MTT assay; format: functional; conditions: A-431, 48 h, read-out: Activity
A-431 [14] = assay: Cell cycle arrest in human A431 cells after 24 hrs by propidium iodide staining based flow cytometric analysis; format: functional
A-431 [15] = assay: Cell cycle arrest in human A431 cells assessed as accumulation at subG1 phase at 10 uM after 24 hrs by propidium iodide staining based flow cytometric analysis (reference value: 3.40%); format: functional
A-431 [16] = assay: Cell cycle arrest in human A431 cells assessed as accumulation at G1 phase at 10 uM after 24 hrs by propidium iodide staining based flow cytometric analysis (reference value: 53.04%); format: functional
[17] = target: T2, M-phase inducer phosphatase 3 (Homo sapiens); assay: Inhibition of CDC25C in human A431 cells assessed as decrease in CDK-mediated phosphorylation of histone H3 at Ser10 residues at 50 uM after 24 hrs by Western blot analysis; format: cell-based
A-431 [18] = assay: Growth inhibition of human A431 cells at 10 uM by trypan blue dye based assay; format: functional, cell-based; conditions: TDE = time-dependent effect
[19] = Potency index, ratio of NSC95397 IC50 to compound IC50 against human U373n cells; format: functional
A549 = assay: Cytotoxicity against human A549 cells assessed as reduction in cell viability after 72 hrs by MTT assay; format: functional, cell-based; conditions: A549, 72 h
PC-3 = assay: Cytotoxicity against human PC3 cells assessed as reduction in cell viability after 72 hrs by MTT assay; format: functional, cell-based; conditions: PC-3, 72 h
A-431 [20] = assay: Decrease in CDC25C protein expression level in human A431 cell extract at 50 uM after 24 hrs by Western blot analysis; format: functional, cell-based
A-431 [21] = assay: Effect on CDC25C splice variant protein expression in human A431 cell extract at 50 uM after 24 hrs by Western blot analysis; format: functional, cell-based
MCF7 = assay: Cytotoxicity against human MCF7 cells assessed as reduction in cell viability after 72 hrs by MTT assay; format: functional, cell-based; conditions: MCF7, 72 h
SK-MEL-28 = assay: Cytotoxicity against human SK-MEL-28 cells assessed as reduction in cell viability after 72 hrs by MTT assay; format: functional, cell-based; conditions: SK-MEL-28, 72 h
A-431 [22] = assay: Cell cycle arrest in human A431 cells assessed as accumulation at subG1 phase at 50 uM after 24 hrs by propidium iodide staining based flow cytometric analysis (reference value: 3.40%); format: functional
A-431 [23] = assay: Cell cycle arrest in human A431 cells assessed as accumulation at S phase at 10 uM after 24 hrs by propidium iodide staining based flow cytometric analysis (reference value: 17.33%); format: functional
A-431 [24] = assay: Cell cycle arrest in human A431 cells assessed as accumulation at S phase at 50 uM after 24 hrs by propidium iodide staining based flow cytometric analysis (reference value: 17.33%); format: functional
A-431 [25] = assay: Induction of apoptosis in human A431 cells assessed as caspase-3 cleavage at 50 uM after 24 hrs by Western blot analysis; format: functional, cell-based
[26] = target: T2, M-phase inducer phosphatase 3 (Homo sapiens); conditions: 10 to 50 uM
Description: Inhibition of CDC25C in human A431 cells assessed as increase in CDK-mediated phosphorylation of histone H3 at Ser10 residues at 10 to 50 uM after 24 hrs by Western blot analysis

[27] = target: T4, M-phase inducer phosphatase 2 (Homo sapiens, UniProt P30305); assay: Inhibition of recombinant human GST-tagged truncated CDC25B expressed in bacterial expression system using 3-O-methylfluorescein phosphate as substrate after 2 hrs by fluorimetric analysis
T4 sequence (P30305 whole entry): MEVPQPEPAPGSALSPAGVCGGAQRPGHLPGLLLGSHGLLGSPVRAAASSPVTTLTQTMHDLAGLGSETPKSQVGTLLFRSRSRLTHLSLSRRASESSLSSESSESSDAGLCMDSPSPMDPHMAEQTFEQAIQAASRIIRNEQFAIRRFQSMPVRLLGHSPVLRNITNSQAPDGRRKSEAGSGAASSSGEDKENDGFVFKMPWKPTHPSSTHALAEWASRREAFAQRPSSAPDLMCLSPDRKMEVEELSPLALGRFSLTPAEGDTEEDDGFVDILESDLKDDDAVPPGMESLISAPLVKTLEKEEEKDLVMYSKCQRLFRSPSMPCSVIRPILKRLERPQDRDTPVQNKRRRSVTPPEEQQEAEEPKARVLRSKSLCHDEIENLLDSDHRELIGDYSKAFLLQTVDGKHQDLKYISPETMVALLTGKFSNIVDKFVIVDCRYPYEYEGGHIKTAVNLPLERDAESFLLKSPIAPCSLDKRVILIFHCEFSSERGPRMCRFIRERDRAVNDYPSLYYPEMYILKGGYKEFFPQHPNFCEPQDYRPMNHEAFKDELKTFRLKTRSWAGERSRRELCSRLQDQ

A-431 [28] = assay: Induction of apoptosis in human A431 cells assessed as PARP cleavage at 50 uM after 24 hrs by Western blot analysis; format: functional, cell-based
A-431 [29] = assay: Induction of apoptosis in human A431 cells assessed as caspase-3 cleavage at 10 to 50 uM after 24 hrs by Western blot analysis; format: functional, cell-based

| SMILES | IC50 (Hs 683) [µM] | Activity (A-431 [2]) [%] | IC50 [4] [µM] | Activity (A-431 [6]) [%] | IC50 [7] [µM] | Activity (A-431 [8]) [%] | IC50 (A-431 [9]) [µM] | IC50 [10] [µM] | inhibition [12] | Activity (A-431 [15]) [%] | Activity (A-431 [16]) [%] | IC50 (A549) [µM] | IC50 (PC-3) [µM] | Activity (A-431 [20]) | Activity (A-431 [21]) | IC50 (MCF7) [µM] | IC50 (SK-MEL-28) [µM] | Activity (A-431 [22]) [%] | Activity (A-431 [23]) [%] | Activity (A-431 [24]) [%] | other results |
| --- | --- | --- | --- | --- | --- | --- | --- | --- | --- | --- | --- | --- | --- | --- | --- | --- | --- | --- | --- | --- | --- |
| O=C1C=CC(=O)c2c1ccc1c2c(=O)[nH]c2ccc(Cl)cc21 | 0.2 | 27.78 | 5.72 | 31.53 | 4.33 | 26.65 | 3.13 | 0.1 | inactive | 15.46 | 44.5 | 0.3 | 0.3 | Active | Active | 1.2 | 0.3 | 33.63 | 13.39 | 7.07 | Activity (A-431 [1]): Active; Activity (A-431 [3]): >60%; inhibition [5]: Active; Activity (A-431 [11]): Active; viability at 10 µM (A-431 [13]): 10%; Activity (A-431 [14]): Dose-dependent effect; inhibition [17]: inactive; growth inhibition (GI) (A-431 [18]): Tde; Ratio IC50 [19]: 18.5 |
| O=C1C=CC(=O)c2c1ccc1c2c(=O)oc2ccccc21 | 20 | 29.72 | 2.3 | 42.38 | 5.8 | 29.39 | 16 | 18 | Active | 6.85 | 45.05 | 26 | 32 | Active | Active | 16 | 29 | 16.51 | 18.71 | 11.39 | Activity (A-431 [25]): Active; inhibition [26]: Active; IC50 [27]: 14.4 µM |
| O=C1C=CC(=O)c2c1ccc1c2c(=O)oc2cc(Cl)ccc21 | 1.2 | 25.91 | 0.77 | 53.78 | 1.61 | 28.92 | 29.2 | 3.7 |  | 3.6 | 48.91 | 3.2 | 4.4 | inactive | inactive | 2.8 | 7.8 | 4.07 | 18.57 | 16.24 | Activity (A-431 [28]): inactive; Activity (A-431 [29]): inactive |
